Several values for one entry are separate records, joined by “and”; a condition that tells them apart may be missing. Identical values can stand only once. Each block holds one compound with its values, some of them ahead of it.
Assays:
[1] = from 1 week under the conditions of 24°C, 50 % RH; water contents 24,41 %; cited from earlier work
[2] = Storage stability at normal pressure over 1 week under ICH conditions (water content by KF); format: physicochemical
Experimental: (§1) These investigations were carried out in a HERAEUS vacuum drying oven of a volume of 53 liters, at a relative humidity (RH) of less than 1 %. Investigations of storage stability at normal pressure were carried out over a period of 1 week, in compliance with the internationally accepted standards about storage stability test conditions for pharmaceuticals as defined in ICH (International Conference on Harmonization of Technical Requirements for Registration of Pharmaceuticals for Human Use), at 25°C / 60 % RH for longterm stability condition, 30°C / […] for intermediate term stability condition and 40°C / 75 % RH for accelerated stability condition.
Table 1. Water content (%, KF) of 3 lots of disodium pamidronate after storage for 1 week

[3] = Storage at room temperature at reduced pressure in vacuum drying oven (water content by KF); format: physicochemical; settings: for water by KF method: room temperature, reduced pressure (20 millibar), RH less than 1 %
Experimental: as §1

Structure (SMILES): NCCC(O)(P(=O)([O-])O)P(=O)([O-])O.O.O.O.O.O.[Na+].[Na+] [5 hydrates]
- loss of water contents on storage [1]: a part of the water contents (24,41 %) is lost

- Water content (%, KF) ([2]; after storage for 1 week at 25°C/60%RH (longterm stability condition), listed as 0034): 24.37%
- Water content (%, KF) ([2]; after storage for 1 week at 30°C/60%RH (intermediate term stability condition), listed as 0034): 24.38%
- Water content (%, KF) ([2]; after storage for 1 week at 40°C/75%RH (accelerated stability condition), listed as 0034): 24.43%
- Water content (%, KF) ([2]; initial, before storage, listed as 0034): 24.55%
Structure (SMILES): NCCC(O)(P(=O)([O-])O)P(=O)([O-])O.O.O.O.O.O.[Na+].[Na+] [Lot 0034, disodium pamidronate pentahydrate]

- Water content (%, KF) ([2]; after storage for 1 week at 25°C/60%RH (longterm stability condition), listed as 0035): 24.40%
- Water content (%, KF) ([2]; after storage for 1 week at 30°C/60%RH (intermediate term stability condition), listed as 0035): 24.39%
- Water content (%, KF) ([2]; after storage for 1 week at 40°C/75%RH (accelerated stability condition), listed as 0035): 24.27%
- Water content (%, KF) ([2]; initial, before storage, listed as 0035): 24.38%
Structure (SMILES): NCCC(O)(P(=O)([O-])O)P(=O)([O-])O.O.O.O.O.O.[Na+].[Na+] [Lot 0035, disodium pamidronate pentahydrate]

- Water content (%, KF) ([2]; after storage for 1 week at 25°C/60%RH (longterm stability condition), listed as 0036): 24.32%
- Water content (%, KF) ([2]; after storage for 1 week at 30°C/60%RH (intermediate term stability condition), listed as 0036): 24.35%
- Water content (%, KF) ([2]; after storage for 1 week at 40°C/75%RH (accelerated stability condition), listed as 0036): 24.39%
- Water content (%, KF) ([2]; initial, before storage, listed as 0036): 24.48%
Structure (SMILES): NCCC(O)(P(=O)([O-])O)P(=O)([O-])O.O.O.O.O.O.[Na+].[Na+] [Lot 0036, disodium pamidronate pentahydrate]

- water by KF method ([3]; after 4 hours of storage): 24.7%
- water by KF method ([3]; after 10 hours of storage): 24.4%
- water by KF method ([3]; after 38 hours of storage (determined in triplicate)): 24.35% and 24.38% and 24.32%
- Stability of the product (loss of water) ([3]; stored at room temperature at reduced pressure (20 millibar)): no loss of water
- storage stability ([2]; 1 week at 25°C/60 % RH, 30°C/60 % RH and 40°C/75 % RH): stable
Structure (SMILES): NCCC(O)(P(=O)([O-])O)P(=O)([O-])O.O.O.O.O.O.[Na+].[Na+] [disodium pamidronate pentahydrate]

Source: patent publication EP1689759B1, “METHOD FOR PRODUCING PURE DISODIUM PAMIDRONATE” (Mustafa Nevzat Ilac Sanayii A.S., priority 2003, dated 2005)
